Test results reported in patent publication US9340590B2 (priority 2011, dated 2016).
Positions of bridges follow the written chain, without caps; N, C: chain ends. Non-standard residues stand in square brackets, D forms with d. Residues, ends and D or L forms follow the SMILES beside them. 1Nal = N[C@@H](Cc1cccc2ccccc12)C(=O)O

molecular target: hNav1.7 (Homo sapiens, UniProt Q15858); test: cell-based; conditions: Nav1.7 Use IC50
Sequence (Q15858 whole entry, looked up): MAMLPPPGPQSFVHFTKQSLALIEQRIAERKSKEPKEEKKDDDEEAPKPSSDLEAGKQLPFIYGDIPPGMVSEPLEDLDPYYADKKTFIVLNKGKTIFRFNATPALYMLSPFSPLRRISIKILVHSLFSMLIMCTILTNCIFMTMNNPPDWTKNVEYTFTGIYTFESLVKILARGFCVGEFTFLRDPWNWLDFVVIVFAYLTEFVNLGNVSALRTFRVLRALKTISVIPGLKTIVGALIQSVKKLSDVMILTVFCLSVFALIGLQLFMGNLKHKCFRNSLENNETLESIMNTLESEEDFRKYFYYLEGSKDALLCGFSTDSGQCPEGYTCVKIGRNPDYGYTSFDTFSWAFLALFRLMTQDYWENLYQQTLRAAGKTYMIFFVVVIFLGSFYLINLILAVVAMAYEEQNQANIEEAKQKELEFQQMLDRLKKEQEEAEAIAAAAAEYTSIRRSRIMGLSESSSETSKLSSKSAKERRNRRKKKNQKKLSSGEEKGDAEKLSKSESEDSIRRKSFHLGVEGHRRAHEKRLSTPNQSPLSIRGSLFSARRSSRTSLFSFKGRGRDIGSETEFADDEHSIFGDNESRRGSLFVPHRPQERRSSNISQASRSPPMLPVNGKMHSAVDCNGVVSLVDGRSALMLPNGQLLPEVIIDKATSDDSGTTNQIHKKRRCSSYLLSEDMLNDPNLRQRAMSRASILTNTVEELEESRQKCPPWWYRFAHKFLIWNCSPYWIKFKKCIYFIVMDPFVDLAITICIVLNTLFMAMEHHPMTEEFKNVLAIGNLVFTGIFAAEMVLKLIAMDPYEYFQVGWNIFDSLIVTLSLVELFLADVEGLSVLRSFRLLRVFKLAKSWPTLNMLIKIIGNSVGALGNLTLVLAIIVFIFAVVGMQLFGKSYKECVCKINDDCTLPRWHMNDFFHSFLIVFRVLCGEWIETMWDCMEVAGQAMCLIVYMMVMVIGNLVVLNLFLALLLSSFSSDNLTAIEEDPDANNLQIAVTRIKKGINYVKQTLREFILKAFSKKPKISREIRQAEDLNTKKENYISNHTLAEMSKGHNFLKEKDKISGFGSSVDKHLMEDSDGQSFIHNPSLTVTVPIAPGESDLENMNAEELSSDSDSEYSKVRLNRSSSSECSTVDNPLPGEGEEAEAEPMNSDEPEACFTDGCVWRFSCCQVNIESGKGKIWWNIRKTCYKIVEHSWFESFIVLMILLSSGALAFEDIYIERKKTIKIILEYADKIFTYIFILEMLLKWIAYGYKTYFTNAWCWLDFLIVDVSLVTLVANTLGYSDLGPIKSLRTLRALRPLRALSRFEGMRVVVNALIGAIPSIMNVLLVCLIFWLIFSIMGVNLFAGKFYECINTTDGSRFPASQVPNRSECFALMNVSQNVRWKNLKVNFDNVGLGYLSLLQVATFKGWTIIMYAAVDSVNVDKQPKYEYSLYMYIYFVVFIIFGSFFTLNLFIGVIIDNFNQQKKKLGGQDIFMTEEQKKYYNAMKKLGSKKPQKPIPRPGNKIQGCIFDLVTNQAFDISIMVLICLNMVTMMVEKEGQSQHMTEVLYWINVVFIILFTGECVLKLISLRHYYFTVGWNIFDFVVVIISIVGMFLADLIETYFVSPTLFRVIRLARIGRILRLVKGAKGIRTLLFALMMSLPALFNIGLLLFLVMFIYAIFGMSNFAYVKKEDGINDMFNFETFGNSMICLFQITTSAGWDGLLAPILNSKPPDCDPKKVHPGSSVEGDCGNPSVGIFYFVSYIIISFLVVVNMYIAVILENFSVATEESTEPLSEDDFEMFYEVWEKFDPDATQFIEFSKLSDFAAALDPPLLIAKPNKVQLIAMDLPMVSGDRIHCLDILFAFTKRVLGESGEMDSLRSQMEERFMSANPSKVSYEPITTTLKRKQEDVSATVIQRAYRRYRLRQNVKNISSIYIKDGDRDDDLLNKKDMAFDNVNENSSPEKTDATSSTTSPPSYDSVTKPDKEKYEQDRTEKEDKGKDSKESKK

**Q.** Which IC50 does the source give for CC[C@@H]1NC(=O)CNC(=O)[C@H](CC(C)C)NC(=O)[C@@H](NC(=O)[C@@H](N)CC(=O)O)CSSC[C@@H]2NC(=O)[C@@H]3CSSC[C@@H](C(=O)N[C@@H](CCCCN)C(=O)N[C@@H](Cc4ccc(O)cc4)C(=O)N[C@H](C(=O)N[C@@H](Cc4ccccc4)C(N)=O)C(C)C)NC(=O)[C@H](Cc4c[nH]c5ccccc45)NC(=O)[C@H](CCCCN)NC(=O)[C@H](Cc4cnc[nH]4)NC(=O)[C@H]([C@@H](C)O)NC(=O)[C@H](CCCNC(=N)N)NC(=O)[C@H](CO)NC(=O)[C@H](CSSC[C@H](NC(=O)[C@H](CCCCN)NC(=O)[C@H](CCCNC(=N)N)NC(=O)[C@H](CCSC)NC1=O)C(=O)N[C@@H]([C@@H](C)CC)C(=O)N1CCC[C@H]1C(=O)N[C@@H](CC(=O)O)C(=O)N[C@@H](CC(N)=O)C(=O)N[C@@H](CC(=O)O)C(=O)N[C@@H](CCCCN)C(=O)N3)NC(=O)[C@H](C(C)C)NC(=O)[C@H](CC(C)C)NC(=O)[C@H](CC(N)=O)NC(=O)[C@@H]1CCCN1C(=O)[C@H](CCCNC(=N)N)NC2=O [[2-Abu5]GpTx-1(1-34)] here?
**A.** Its IC50 is 83 nM.

**Q.** Which IC50 does the source give for CSCC[C@@H]1NC(=O)[C@H](Cc2ccccc2)NC(=O)CNC(=O)[C@H](CC(C)C)NC(=O)[C@@H](NC(=O)[C@@H](N)CC(=O)O)CSSC[C@@H]2NC(=O)[C@@H]3CSSC[C@@H](C(=O)N[C@@H](CCCCN)C(=O)N[C@@H](Cc4ccc(O)cc4)C(=O)N[C@H](C(=O)N[C@@H](Cc4ccccc4)C(N)=O)C(C)C)NC(=O)[C@H](Cc4c[nH]c5ccccc45)NC(=O)[C@H](CCCCN)NC(=O)[C@H](Cc4cnc[nH]4)NC(=O)[C@H]([C@@H](C)O)NC(=O)[C@H](CCCNC(=N)N)NC(=O)[C@H](CO)NC(=O)[C@H](CSSC[C@H](NC(=O)[C@H](CCCCN)NC(=O)[C@H](CCCNC(=N)N)NC1=O)C(=O)N[C@@H](CC(N)=O)C(=O)N1CCC[C@H]1C(=O)N[C@@H](CC(=O)O)C(=O)N[C@@H](CC(N)=O)C(=O)N[C@@H](CC(=O)O)C(=O)N[C@@H](CCCCN)C(=O)N3)NC(=O)[C@H](C(C)C)NC(=O)[C@H](CC(C)C)NC(=O)[C@H](CC(N)=O)NC(=O)[C@@H]1CCCN1C(=O)[C@H](CCCNC(=N)N)NC2=O [[Asn10]GpTx-1(1-34)] (H-DCLGFMRKCNPDNDKCCRPNLVCSRTHKWCKYVF-NH2; disulfide 2-17, 9-23, 16-30) here?
**A.** The IC50 was 2 nM.

same assay, conditions: read-out: Nav1.7 Use IC50

**Q.** CC[C@H](C)[C@@H]1NC(=O)[C@@H]2CSSC[C@@H]3NC(=O)[C@H](C(C)C)NC(=O)[C@H](CC(C)C)NC(=O)[C@H](CC(N)=O)NC(=O)[C@@H]4CCCN4C(=O)[C@H](CCCNC(=N)N)NC(=O)[C@H](CSSC[C@H](NC(=O)[C@@H](N)CC(=O)O)C(=O)N[C@@H](CC(C)C)C(=O)N[C@@H](CCCNC(=N)N)C(=O)N[C@@H](Cc4ccccc4)C(=O)N[C@@H](CCSC)C(=O)N[C@@H](CCCNC(=N)N)C(=O)N[C@@H](CCCCN)C(=O)N2)NC(=O)[C@H](CSSC[C@@H](C(=O)N[C@@H](CCCCN)C(=O)N[C@@H](Cc2ccc(O)cc2)C(=O)N[C@H](C(=O)N[C@@H](Cc2ccccc2)C(N)=O)C(C)C)NC(=O)[C@H](Cc2c[nH]c4ccccc24)NC(=O)[C@H](CCCCN)NC(=O)[C@H](Cc2c[nH]cn2)NC(=O)[C@H]([C@@H](C)O)NC(=O)[C@H](CCCNC(=N)N)NC(=O)[C@H](CO)NC3=O)NC(=O)[C@H](CCCCN)NC(=O)[C@H](CC(=O)O)NC(=O)[C@H](CC(N)=O)NC(=O)[C@H](CC(=O)O)NC(=O)[C@@H]2CCCN2C1=O [SEQ ID NO: 63] (H-DCLRFMRKCIPDNDKCCRPNLVCSRTHKWCKYVF-NH2; disulfide 2-17, 9-23, 16-30) was tested. Which IC50 did it give?
**A.** The IC50 was 3 nM.

**Q.** How did the IC50 turn out when CC[C@H](C)[C@@H]1NC(=O)[C@@H]2CSSC[C@@H]3NC(=O)[C@H](C(C)C)NC(=O)[C@H](CC(C)C)NC(=O)[C@H](CC(N)=O)NC(=O)[C@@H]4CCCN4C(=O)[C@H](CCCNC(=N)N)NC(=O)[C@H](CSSC[C@H](NC(=O)[C@@H](N)CC(=O)O)C(=O)N[C@@H](CC(C)C)C(=O)NCC(=O)NCC(=O)N[C@@H](CCSC)C(=O)N[C@@H](CCCNC(=N)N)C(=O)N[C@@H](CCCCN)C(=O)N2)NC(=O)[C@H](CSSC[C@@H](C(=O)N[C@@H](CCCCN)C(=O)N[C@@H](Cc2ccc(O)cc2)C(=O)N[C@H](C(=O)N[C@@H](Cc2ccccc2)C(N)=O)C(C)C)NC(=O)[C@H](Cc2c[nH]c4ccccc24)NC(=O)[C@H](CCCCN)NC(=O)[C@H](Cc2c[nH]cn2)NC(=O)[C@H]([C@@H](C)O)NC(=O)[C@H](CCCNC(=N)N)NC(=O)[C@H](CO)NC3=O)NC(=O)[C@H](CCCCN)NC(=O)[C@H](CC(=O)O)NC(=O)[C@H](CC(N)=O)NC(=O)[C@H](CC(=O)O)NC(=O)[C@@H]2CCCN2C1=O [SEQ ID NO: 265] (H-DCLGGMRKCIPDNDKCCRPNLVCSRTHKWCKYVF-NH2; disulfide 2-17, 9-23, 16-30) was run?
**A.** Its IC50 is 9 nM.

**Q.** Which IC50 does the source give for CC[C@H](C)[C@@H]1NC(=O)[C@@H]2CSSC[C@@H]3NC(=O)[C@H](C(C)C)NC(=O)[C@H](CC(C)C)NC(=O)[C@H](CC(N)=O)NC(=O)[C@@H]4CCCN4C(=O)[C@H](CCCNC(=N)N)NC(=O)[C@H](CSSC[C@H](NC(=O)[C@@H](N)CC(=O)O)C(=O)N[C@@H](CC(C)C)C(=O)NCC(=O)N[C@@H](CCSC)C(=O)N[C@@H](CCSC)C(=O)N[C@@H](CCCNC(=N)N)C(=O)N[C@@H](CCCCN)C(=O)N2)NC(=O)[C@H](CSSC[C@@H](C(=O)N[C@@H](CCCCN)C(=O)N[C@@H](Cc2ccc(O)cc2)C(=O)N[C@H](C(=O)N[C@@H](Cc2ccccc2)C(N)=O)C(C)C)NC(=O)[C@H](Cc2c[nH]c4ccccc24)NC(=O)[C@H](CCCCN)NC(=O)[C@H](Cc2c[nH]cn2)NC(=O)[C@H]([C@@H](C)O)NC(=O)[C@H](CCCNC(=N)N)NC(=O)[C@H](CO)NC3=O)NC(=O)[C@H](CCCCN)NC(=O)[C@H](CC(=O)O)NC(=O)[C@H](CC(N)=O)NC(=O)[C@H](CC(=O)O)NC(=O)[C@@H]2CCCN2C1=O [SEQ ID NO: 268] (H-DCLGMMRKCIPDNDKCCRPNLVCSRTHKWCKYVF-NH2; disulfide 2-17, 9-23, 16-30) here?
**A.** The IC50 was 2 nM.

**Q.** With CC[C@H](C)[C@@H]1NC(=O)[C@@H]2CSSC[C@@H]3NC(=O)[C@H](C(C)C)NC(=O)[C@H](CC(C)C)NC(=O)[C@H](CC(N)=O)NC(=O)[C@@H]4CCCN4C(=O)[C@H](CCCNC(=N)N)NC(=O)[C@H](CSSC[C@H](NC(=O)[C@@H](N)CC(=O)O)C(=O)N[C@@H](CC(C)C)C(=O)NCC(=O)N[C@@H](Cc4ccccc4)C(=O)N[C@@H](CCSC)C(=O)N[C@@H](CCCNC(=N)N)C(=O)N[C@@H](CCCCN)C(=O)N2)NC(=O)[C@H](CSSC[C@@H](C(=O)N[C@@H](CCCCN)C(=O)N[C@@H](Cc2cccc4ccccc24)C(=O)N[C@H](C(=O)N[C@@H](Cc2ccccc2)C(N)=O)C(C)C)NC(=O)[C@H](Cc2c[nH]c4ccccc24)NC(=O)[C@H](CCCCN)NC(=O)[C@H](Cc2c[nH]cn2)NC(=O)[C@H]([C@@H](C)O)NC(=O)[C@H](CCCNC(=N)N)NC(=O)[C@H](CO)NC3=O)NC(=O)[C@H](CCCCN)NC(=O)[C@H](CC(=O)O)NC(=O)[C@H](CC(N)=O)NC(=O)[C@H](CC(=O)O)NC(=O)[C@@H]2CCCN2C1=O [[1-Nal32]GpTx-1(1-34)] (H-DCLGFMRKCIPDNDKCCRPNLVCSRTHKWCK[1Nal]VF-NH2; disulfide 2-17, 9-23, 16-30) as the molecule, how does the IC50 read?
**A.** Its IC50 is 4 nM.

**Q.** How did the IC50 turn out when CCCC[C@@H]1NC(=O)[C@H](C)NC(=O)CNC(=O)[C@H](CC(C)C)NC(=O)[C@@H](NC(=O)[C@@H](N)CC(=O)O)CSSC[C@@H]2NC(=O)[C@@H]3CSSC[C@@H](C(=O)N[C@@H](CCCCN)C(=O)N[C@@H](Cc4ccc(O)cc4)C(=O)N[C@H](C(=O)N[C@@H](Cc4ccccc4)C(N)=O)C(C)C)NC(=O)[C@H](Cc4c[nH]c5ccccc45)NC(=O)[C@H](CCCCN)NC(=O)[C@H](Cc4c[nH]cn4)NC(=O)[C@H]([C@@H](C)O)NC(=O)[C@H](CCCNC(=N)N)NC(=O)[C@H](CO)NC(=O)[C@H](CSSC[C@H](NC(=O)[C@H](CCCCN)NC(=O)[C@H](CCCNC(=N)N)NC1=O)C(=O)N[C@@H]([C@@H](C)CC)C(=O)N1CCC[C@H]1C(=O)N[C@@H](CC(=O)O)C(=O)N[C@@H](CC(N)=O)C(=O)N[C@@H](CC(=O)O)C(=O)N[C@@H](CCCCN)C(=O)N3)NC(=O)[C@H](C(C)C)NC(=O)[C@H](CC(C)C)NC(=O)[C@H](CC(N)=O)NC(=O)[C@@H]1CCCN1C(=O)[C@H](CCCNC(=N)N)NC2=O [[Ala5;Nle6]GpTx-1(1-34)] was run?
**A.** The IC50 was 10 nM.

**Q.** CC[C@H](C)[C@@H]1NC(=O)[C@@H]2CSSC[C@@H]3NC(=O)[C@H](C(C)C)NC(=O)[C@H](CC(C)C)NC(=O)[C@H](CC(N)=O)NC(=O)[C@@H]4CCCN4C(=O)[C@H](CCCNC(=N)N)NC(=O)[C@H](CSSC[C@H](NC(=O)[C@@H](N)CC(=O)O)C(=O)N[C@@H](CC(C)C)C(=O)NCC(=O)N[C@@H](C)C(=O)N[C@@H](Cc4ccccc4)C(=O)N[C@@H](CCCNC(=N)N)C(=O)N[C@@H](CCCCN)C(=O)N2)NC(=O)[C@H](CSSC[C@@H](C(=O)N[C@@H](CCCCN)C(=O)N[C@@H](Cc2ccc(O)cc2)C(=O)N[C@H](C(=O)N[C@@H](Cc2ccccc2)C(N)=O)C(C)C)NC(=O)[C@H](Cc2c[nH]c4ccccc24)NC(=O)[C@H](CCCCN)NC(=O)[C@H](Cc2c[nH]cn2)NC(=O)[C@H](CC(C)C)NC(=O)[C@H](CCCNC(=N)N)NC(=O)[C@H](CO)NC3=O)NC(=O)[C@H](CCCCN)NC(=O)[C@H](CC(=O)O)NC(=O)[C@H](CC(N)=O)NC(=O)[C@H](CC(=O)O)NC(=O)[C@@H]2CCCN2C1=O [[Ala5;Phe6;Leu26]GpTx-1(1-34)] (H-DCLGAFRKCIPDNDKCCRPNLVCSRLHKWCKYVF-NH2; disulfide 2-17, 9-23, 16-30) was tested. Which IC50 did it give?
**A.** Its IC50 is 4 nM.

**Q.** How did the IC50 turn out when CC[C@H](C)[C@@H]1NC(=O)[C@@H]2CSSC[C@@H]3NC(=O)[C@H](C(C)C)NC(=O)[C@H](CC(C)C)NC(=O)[C@H](CC(N)=O)NC(=O)[C@@H]4CCCN4C(=O)[C@H](CCCNC(=N)N)NC(=O)[C@H](CSSC[C@H](NC(=O)[C@@H](N)CC(=O)O)C(=O)N[C@@H](CC(C)C)C(=O)NCC(=O)N[C@@H](Cc4ccccc4)C(=O)N[C@@H](CCSC)C(=O)N[C@@H](CCCNC(=N)N)C(=O)N[C@@H](CCCCN)C(=O)N2)NC(=O)[C@H](CSSC[C@@H](C(=O)N[C@@H](CCCCN)C(=O)N[C@@H](Cc2ccc(O)cc2)C(=O)N[C@H](C(=O)N[C@@H](Cc2ccccc2)C(N)=O)C(C)C)NC(=O)[C@H](Cc2c[nH]c4ccccc24)NC(=O)[C@H](CCCCN)NC(=O)[C@H](Cc2c[nH]cn2)NC(=O)[C@H](CCCNC(=N)N)NC(=O)[C@H](CCCNC(=N)N)NC(=O)[C@H](CO)NC3=O)NC(=O)[C@H](CCCCN)NC(=O)[C@H](CC(=O)O)NC(=O)[C@H](CC(N)=O)NC(=O)[C@H](CC(=O)O)NC(=O)[C@@H]2CCCN2C1=O [[Arg26]GpTx-1(1-34)] (H-DCLGFMRKCIPDNDKCCRPNLVCSRRHKWCKYVF-NH2; disulfide 2-17, 9-23, 16-30) was run?
**A.** The IC50 was 5 nM.
